Experimental data reported in patent publication US4194009A, “Aryloxyphenylpropylamines for obtaining a psychotropic effect” (Eli Lilly and Company, priority 1976, dated 1980).

Experiments:
mice [1] = experiment: apomorphine hypothermia antagonism test; type: in vivo; settings: for antagonism of apomorphine hypothermia: in words
Method: (§1) The apomorphine hypothermia antagonism test is carried out as follows: mice are injected with a dose of apomorphine known to reduce body temperature approximately 4° C. The compound under test is injected 1/2 hour before the injection of the apomorphine and the temperatures measured 1/2 hour after injection. The degree of antagonism is expressed as a percent reduction (as compared with controls) of the temperature decrease produced by the injection of the apomorphine. The reserpine hypothermia reversal test is carried out as follows: groups of mice are injected with reserpine and 16.5 hours later are injected intraperitoneally with graded doses of the drug, a different dose level being given to each group of mice. Temperatures are measured at 1 hour after injection of the drug under test and again the effectiveness of the drug is expressed as a percentage decrease in the hypothermia induced by the injection of reserpine as compared with the control group. In the tables which follow, Table 4 gives the results in the apomorphine antagonism and reserpine reversal hypothermia tests for the secondary amines of this invention. In the table, the first column gives the substituent attached to the oxygen atom at the 3 position of the propylamine chain; columns 2 to 4 the percent antagonism against apomorphine hypothermia at dose levels of 0.3, 1 and 3 mg./kg. and columns 5-7 the percent reversal of reserpine hypothermia at the same dose levels.

isolated muscle strips [2] = experiment: antiserotonin effect in isolated muscle strips; type: cell-based
mice [3] = experiment: reserpine hypothermia reversal test; type: in vivo; settings: for reversal of reserpine hypothermia: in words
Method: as §1

isolated muscle strips [4] = experiment: anticholinergic effect in isolated muscle strips; type: cell-based
isolated muscle strips [5] = experiment: antihistaminic effect in isolated muscle strips; type: cell-based
[6] = system: dopamine uptake by synaptosomes from rat brain; experiment: blockage of dopamine uptake by synaptosomes from rat brain; type: biochemical
Text: (§2) This blockade is shown both in vitro with radioactive labelled compounds to determine the amount of monoamine uptake by synaptosomes from rat brain, and in vivo by a variety of methods. Among the physiologically active monoamines whose uptake is blocked by the compounds of this invention are included serotonin, norepinephrine and dopamine (3,4-dihydroxyphenylethylamine). […] Tables 1 and 2 which follow set forth the results of some of the in vitro determinations of the blockage of monoamine uptake by the compounds of this invention. In the tables, column 1 gives the R substituent on the 3-phenylpropylamine and columns 2-4, the concentration in micrograms per ml. that blocks the uptake of a particular amine by 50 percent for the amines--norephinephrine, serotonin, and dopamine. At the head of each column is given the concentration of the particular monoamine used in the experiment.

[7] = system: serotonin uptake by synaptosomes from rat brain; experiment: blockage of serotonin uptake by synaptosomes from rat brain; type: biochemical; settings: Table 1, serotonin 0.1 μM
Text: In the tables, column 1 gives the R substituent on the 3-phenylpropylamine and columns 2-4, the concentration in micrograms per ml. that blocks the uptake of a particular amine by 50 percent for the amines--norephinephrine, serotonin, and dopamine. At the head of each column is given the concentration of the particular monoamine used in the experiment.

rats = experiment: prevention of brain serotonin depletion caused by 4-chloroamphetamine; type: in vivo, rat; settings: in words
Method: Following this injection, the protecting drug was injected at a dose of 15 mg./kg. of rat-weight intraperitoneally and determinations of brain serotonin levels were carried out 4 hours later.

[8] = system: norepinephrine uptake by synaptosomes from rat brain; experiment: blockage of norepinephrine uptake by synaptosomes from rat brain; type: biochemical
Text: as §2

[9] = prevention of brain monoamine depletion caused by α-ethyl-4-methyl-m-tyramine; type: in vivo; settings: in words
pigeons = experiment: operant behavior, fixed-ratio, fixed interval schedule in pigeons; type: in vivo
anesthetized cats = experiment: electrocardiogram (QRS complex) in anesthetized cats; settings: intravenous injection
[10] = Table 1, norepinephrine 0.48 μM
[11] = Table 5, mice, 1 mg./kg. intraperitoneally
[12] = Table 5, mice, 3 mg./kg. intraperitoneally
[13] = Table 5, mice, 10 mg./kg. intraperitoneally

| SMILES | Concentration in mcg./ml. that blocks 50% of amine uptake, Dopamine ([6]; Table 1, dopamine 0.2 μM) | Concentration in mcg./ml. that blocks 50% of amine uptake, Serotonin [7] | Concentration in mcg./ml. that blocks 50% of amine uptake, Norepinephrine [8, 10] | Percent Antagonism Apomorphine Pre-30 min. (mice [1]; Table 5, mice, 3 mg./kg.) | Percent Antagonism Apomorphine Pre-30 min. (mice [1]; Table 5, mice, 10 mg./kg.) | Percent Antagonism Reserpine Post-60 min. (mice [3]; [12]) | Percent Antagonism Reserpine Post-60 min. (mice [3]; [13]) | further results |
| --- | --- | --- | --- | --- | --- | --- | --- | --- |
| CNCCCN1c2ccccc2CCc2ccccc21 [desmethylimipramine] |  |  |  |  |  |  |  | antagonism of apomorphine hypothermia (mice [1]): active; antiserotonin potency relative to N-methyl 3-(o-methoxyphenoxy)-3-phenylpropylamine (isolated muscle strips [2]): three times more potent; reversal of reserpine hypothermia (mice [3]): active; anticholinergic potency relative to N-methyl 3-(o-methoxyphenoxy)-3-phenylpropylamine (isolated muscle strips [4]): 150 times; antihistaminic potency relative to N-methyl 3-(o-methoxyphenoxy)-3-phenylpropylamine (isolated muscle strips [5]): 150 times |
| CN(C)CCC(Oc1ccc(C(F)(F)F)cc1)c1ccccc1 (stereo not shown) [p-trifluoromethylphenyl, N,N-dimethyl 3-(p-trifluoromethylphenoxy)-3-phenylpropylamine] | > 100 µg/mL | .16 µg/mL | 70 µg/mL |  |  |  |  | inhibition in vivo at 1 mg/kg (mice [1]; Mus musculus, Table 4, mice, 1 mg./kg., read-out: Percent Antagonism Apomorphine Pre-30 min.): 11%; inhibition in vivo at 3 mg/kg (mice [1]; Mus musculus, Table 4, mice, 3 mg./kg., read-out: Percent Antagonism Apomorphine Pre-30 min.): 25%; inhibition in vivo at 3 mg/kg (mice [1]; Mus musculus, Table 5, mice, 3 mg./kg., read-out: Percent Antagonism Apomorphine Pre-30 min.): 24%; inhibition in vivo at 3 mg/kg (mice [3]; Mus musculus, ip, 1 h, Table 5, mice, 3 mg./kg. intraperitoneally, read-out: Percent Antagonism Reserpine Post-60 min.): 20%; prevention of serotonin depletion caused by 4-chloroamphetamine (rats): gave similar results |
| CNCCC(Oc1ccc(C(F)(F)F)cc1)c1ccccc1 (stereo not shown) [p-trifluoromethylpenyl, N-methyl 3-(p-trifluoromethylphenoxy)-3-phenylpropylamine] |  |  |  |  |  |  |  | Concentration in mcg./ml. that blocks 50% of amine uptake, Dopamine ([6]; Table 2, dopamine 0.2 μM): > 100 µg/mL; prevention of serotonin depletion caused by 4-chloroamphetamine (rats): prevented the depletion of serotonin; depletion of norepinephrine by α-ethyl-4-methyl-m-tyramine [9]: not the depletion of norepinephrine; depletion of serotonin in the brain by α-ethyl-4-methyl-m-tyramine [9]: prevented the depletion of serotonin in the brain; Concentration in mcg./ml. that blocks 50% of amine uptake, Norepinephrine ([8]; Table 2, norepinephrine 0.48 μM): 20 µg/mL |
| CN(C)CCC(Oc1ccccc1Cl)c1ccccc1 (stereo not shown) [o-chlorophenyl, N,N-dimethyl 3-(o-chlorophenoxy)-3-phenylpropylamine] | .2 µg/mL | .2 µg/mL | .45 µg/mL | -17% | 57% | 4% | 25% | Percent Antagonism Apomorphine Pre-30 min. (mice [1]; Table 5, mice, 1 mg./kg.): -10%; Percent Antagonism Reserpine Post-60 min. (mice [3]; [11]): 3% |
| CNCCC(Oc1ccccc1OC)c1ccccc1 (stereo not shown) [o-anisyl, N-methyl 3-(o-methoxyphenoxy)-3-phenylpropylamine] |  |  |  |  |  |  |  | persistence of the effect on response rates (pigeons): more than 24 hours |
| CCOc1ccccc1OC(CCN(C)C)c1ccccc1 (stereo not shown) [o-phenetyl, N,N-dimethyl 3-(o-ethoxyphenoxy)-3-phenylpropylamine] | > 100 µg/mL | 6 µg/mL | 3 µg/mL | 13% | 76% | 16% | 40% |  |
| NCCC(Oc1ccc(C(F)(F)F)cc1)c1ccccc1.O=C(O)C(=O)O (stereo not shown) [3-(p-trifluoromethylphenoxy)-3-phenylpropylamine oxalate] |  |  |  |  |  |  |  | prevention of serotonin depletion caused by 4-chloroamphetamine (rats): gave similar results |
| CN(C)CCC=C1c2ccccc2CCc2ccccc21 [amitriptyline, reference compound] |  |  |  |  |  |  |  | antagonism of apomorphine hypothermia (mice [1]): active; reversal of reserpine hypothermia (mice [3]): active; widening of the QRS complex of the electrocardiogram (anesthetized cats): causes a widening of the QRS complex |
| COc1ccccc1OC(CCN)c1ccccc1 (stereo not shown) [3-(o-Methoxyphenoxy)-3-phenylpropylamine, 3-(o-methoxyphenoxy)-3-phenylpropylamine] |  |  |  |  |  |  |  | widening of the QRS complex of the electrocardiogram (anesthetized cats): affects the electrocardiogram similarly, but at far higher doses |
| CN(C)CCC(Oc1ccccc1)c1ccccc1 (stereo not shown) [phenyl] | .3 µg/mL | .6 µg/mL | 1 µg/mL | 3% | 54% | 20% | 49% |  |
| CCc1ccccc1OC(CCN(C)C)c1ccccc1 (stereo not shown) [o-ethylphenyl, N,N-dimethyl 3-(o-ethylphenoxy)-3-phenylpropylamine] | > 100 µg/mL | 3.5 µg/mL | > 100 µg/mL | 20% | 74% | 13% | 35% | Percent Antagonism Reserpine Post-60 min. (mice [3]; [11]): 17% |
